Laboratory results from PubChem BioAssay AID330 (DTP/NCI, 2004).
“And” between values parts separate entries of the source, which are not always exact repeats. Identical values can stand only once. Toxic doses and inconclusive results are not listed. The calls were made as follows: active = survival T/C of 150% or more; inactive = T/C below 125% in these data. Square brackets hold non-standard residues; d marks the D form. Peptide text beside a SMILES is read from it. * marks the point of attachment. ξ: configuration not given here. Cbz = O=C(OCc1ccccc1)*; ξT = CC(O)C(N)C(=O)O

System: P388 leukemia ip, CD2F1 mice, survival T/C
Test: NCI In Vivo Anticancer Drug Screen. Data for tumor model P388 Leukemia (intraperitoneal) in CD2F1 (CDF1) mice
Conditions: endpoint: median survival time, higher = longer survival
Method in brief: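 Mice carrying the transplanted tumor received test compound or vehicle. Survival was recorded in each group, and the value is the treated-group measurement divided by that of the vehicle-treated control group.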

[1] = dose: 60.0 mg/kg/injection, schedule: Q01DX005 (ip), vehicle: Klucel (hydroxypropylcellulose) (HPC)
[2] = dose: 50.0 mg/kg/injection, schedule: Q01DX005 (ip), vehicle: saline with Tween-80
[3] = dose: 100.0 mg/kg/injection, schedule: Q01DX005 (ip), vehicle: saline with Tween-80
[4] = dose: 200.0 mg/kg/injection, schedule: Q01DX005 (ip), vehicle: saline with Tween-80
[5] = dose: 50.0 mg/kg/injection, schedule: Q01DX009 (ip), vehicle: Klucel (hydroxypropylcellulose) (HPC)
[6] = dose: 100.0 mg/kg/injection, schedule: Q01DX009 (ip), vehicle: Klucel (hydroxypropylcellulose) (HPC)
[7] = dose: 200.0 mg/kg/injection, schedule: Q01DX009 (ip), vehicle: Klucel (hydroxypropylcellulose) (HPC)
[8] = dose: 100.0 mg/kg/injection, schedule: Q01DX001 (ip), vehicle: Klucel (hydroxypropylcellulose) (HPC)
[9] = dose: 50.0 mg/kg/injection, schedule: Q01DX005 (ip), vehicle: Klucel (hydroxypropylcellulose) (HPC)
[10] = dose: 100.0 mg/kg/injection, schedule: Q01DX005 (ip), vehicle: Klucel (hydroxypropylcellulose) (HPC)
[11] = dose: 200.0 mg/kg/injection, schedule: Q01DX005 (ip), vehicle: Klucel (hydroxypropylcellulose) (HPC)
[12] = dose: 50.0 mg/kg/injection, schedule: Q01DX009 (ip), vehicle: saline
[13] = dose: 100.0 mg/kg/injection, schedule: Q01DX009 (ip), vehicle: saline
[14] = dose: 200.0 mg/kg/injection, schedule: Q01DX009 (ip), vehicle: saline

Measured: T/C

C[C@@H]1CCC2=C(CO)C(=O)O[C@@]23CC(C)(C)[C@H]2O[C@]123
inactive: dose: 2.25 mg/kg/injection, schedule: Q01DX005 (ip), vehicle: Klucel (hydroxypropylcellulose) (HPC) 98 % of control | dose: 4.5 mg/kg/injection, schedule: Q01DX005 (ip), vehicle: Klucel (hydroxypropylcellulose) (HPC) 97 % of control | dose: 9.0 mg/kg/injection, schedule: Q01DX005 (ip), vehicle: Klucel (hydroxypropylcellulose) (HPC) 98 % of control | dose: 18.0 mg/kg/injection, schedule: Q01DX005 (ip), vehicle: Klucel (hydroxypropylcellulose) (HPC) 100 % of control | dose: 36.0 mg/kg/injection, schedule: Q01DX005 (ip), vehicle: Klucel (hydroxypropylcellulose) (HPC) 103 % of control

Cc1ncc(CN2CSC(CCO)C2C)c(N)n1 (stereo unspecified)
inactive: [1] 100 % of control | dose: 120.0 mg/kg/injection, schedule: Q01DX005 (ip), vehicle: Klucel (hydroxypropylcellulose) (HPC) 106 % of control | dose: 240.0 mg/kg/injection, schedule: Q01DX005 (ip), vehicle: Klucel (hydroxypropylcellulose) (HPC) 105 % of control

COc1ccc2nccc(NCCCN3CCN(CCCNc4ccnc5ccc(OC)cc45)CC3)c2c1
inactive: dose: 3.75 mg/kg/injection, schedule: Q01DX005 (ip), vehicle: water 104 % of control | dose: 7.5 mg/kg/injection, schedule: Q01DX005 (ip), vehicle: water 107 % of control | dose: 15.0 mg/kg/injection, schedule: Q01DX005 (ip), vehicle: water 99 % of control

CC1CCC(C(=O)C2CCCCC2CC2CCCCC2)CC1 (stereo unspecified)
inactive: [2] 105 % of control | [3] 102 % of control | [4] 96 % of control

COCN1C(=O)CN=C(c2ccccc2)c2cc([N+](=O)[O-])ccc21
inactive: [5] 100 % of control | [6] 101 % of control | [7] 98 % of control

[CH3][Sn]([CH3])([O]c1cccccc1=O)[O]c1cccccc1=O
inactive: dose: 25.0 mg/kg/injection, schedule: Q01DX001 (ip), vehicle: Klucel (hydroxypropylcellulose) (HPC) 99 % of control | dose: 50.0 mg/kg/injection, schedule: Q01DX001 (ip), vehicle: Klucel (hydroxypropylcellulose) (HPC) 99 % of control | [8] 100 % of control

O=C1OCCOCCOCCOCCOC1=O
inactive: dose: 100.0 mg/kg/injection, schedule: Q04DX003 (ip), vehicle: saline 96 % of control | dose: 200.0 mg/kg/injection, schedule: Q04DX003 (ip), vehicle: saline 101 % of control | dose: 400.0 mg/kg/injection, schedule: Q04DX003 (ip), vehicle: saline 104 % of control

Cc1ccccc1-n1c(C)nc2c(cnn2C)c1=O
inactive: [9] 100 % of control | [10] 95 % of control | [11] 97 % of control

O=C/C=C/C1C=Cc2c3c(c(O)c(O)c2C(=O)C1O)OCC=C3 (stereo unspecified)
inactive: dose: 6.0 mg/kg/injection, schedule: Q01DX009 (ip), vehicle: Klucel (hydroxypropylcellulose) (HPC) 94 % of control | dose: 12.0 mg/kg/injection, schedule: Q01DX009 (ip), vehicle: Klucel (hydroxypropylcellulose) (HPC) 100 % of control | dose: 24.0 mg/kg/injection, schedule: Q01DX009 (ip), vehicle: Klucel (hydroxypropylcellulose) (HPC) 97 % of control | dose: 48.0 mg/kg/injection, schedule: Q01DX009 (ip), vehicle: Klucel (hydroxypropylcellulose) (HPC) 104 % of control

Nc1c(Cl)[nH]cnc1=S
inactive: dose: 100.0 mg/kg/injection, schedule: Q01DX009 (ip), vehicle: suspension in saline 106 % of control | dose: 200.0 mg/kg/injection, schedule: Q01DX009 (ip), vehicle: suspension in saline 105 % of control | dose: 400.0 mg/kg/injection, schedule: Q01DX009 (ip), vehicle: suspension in saline 99 % of control

COP(=O)(OC)OC.COP(=O)(OC)OC.COP(=O)(OC)OC.COP(=O)(OC)OC.COP(=O)(OC)OC.COP(=O)(OC)OC.[Mn+2].[O-][Cl+3]([O-])([O-])O
inactive: [12] 99 % of control and 100 % of control | [13] 111 % of control | [14] 109 % of control | dose: 400.0 mg/kg/injection, schedule: Q01DX009 (ip), vehicle: saline 123 % of control

CC(O)C(NC(=O)CNC(=O)CNC(=O)OCc1ccccc1)C(=O)O (stereo not drawn) (Cbz-Gly-Gly-[ξT]-OH)
inactive: [9] 96 % of control | [10] 98 % of control | [11] 95 % of control

CC1(C)C=C(O)C(=O)C(O)=C1
inactive: dose: 15.0 mg/kg/injection, schedule: Q01DX005 (ip), vehicle: Klucel (hydroxypropylcellulose) (HPC) 102 % of control | dose: 30.0 mg/kg/injection, schedule: Q01DX005 (ip), vehicle: Klucel (hydroxypropylcellulose) (HPC) 102 % of control | [9] 116 % of control | [1] 103 % of control

CN(C)C1C(=O)C(C(N)=O)=C(O)C2(O)C(=O)C3=C(O)c4c(O)cccc4C(C)(O)C3CC12.O.O.O.[Al] (stereo unspecified)
inactive: dose: 25.0 mg/kg/injection, schedule: Q01DX009 (ip), vehicle: Klucel (hydroxypropylcellulose) (HPC) 95 % of control | [2] 99 % of control | [5] 92 % of control | [3] 99 % of control | [6] 103 % of control | [4] 99 % of control | [7] 106 % of control | dose: 400.0 mg/kg/injection, schedule: Q01DX009 (ip), vehicle: Klucel (hydroxypropylcellulose) (HPC) 107 % of control

N#[O+].O.O=N[O-].O=N[O-].O=N[O-].O=N[O-].[Ru]
inactive: dose: 3.13 mg/kg/injection, schedule: Q04DX003 (ip), vehicle: water 113 % of control | dose: 6.25 mg/kg/injection, schedule: Q04DX003 (ip), vehicle: water 106 % of control and 118 % of control

CC(=N)C(C#N)C(=S)S (stereo unspecified)
inactive: [5] 102 % of control | [6] 86 % of control | [7] 89 % of control

CCOc1nc(C(=O)O)cc2ccsc12
inactive: [8] 90 % of control | dose: 200.0 mg/kg/injection, schedule: Q01DX001 (ip), vehicle: Klucel (hydroxypropylcellulose) (HPC) 94 % of control | dose: 400.0 mg/kg/injection, schedule: Q01DX001 (ip), vehicle: Klucel (hydroxypropylcellulose) (HPC) 96 % of control

Cc1cc(C(=O)O)c(C)c([N+](=O)[O-])c1
inactive: dose: 50.0 mg/kg/injection, schedule: Q01DX009 (ip), vehicle: saline with Tween-80 88 % of control | dose: 100.0 mg/kg/injection, schedule: Q01DX009 (ip), vehicle: saline with Tween-80 104 % of control | dose: 200.0 mg/kg/injection, schedule: Q01DX009 (ip), vehicle: saline with Tween-80 98 % of control | dose: 400.0 mg/kg/injection, schedule: Q01DX009 (ip), vehicle: saline with Tween-80 100 % of control

O=C(Nc1ccc(Cl)c(Cl)c1)Nc1ccc(Cl)c(Cl)c1 (tested in a mixture with another compound)
inactive: dose: 3.13 mg/kg/injection, schedule: Q01DX009 (ip), vehicle: saline with Tween-80 97 % of control | dose: 6.25 mg/kg/injection, schedule: Q01DX009 (ip), vehicle: saline with Tween-80 88 % of control | dose: 12.5 mg/kg/injection, schedule: Q01DX009 (ip), vehicle: saline with Tween-80 94 % of control

C/[N+]([O-])=C/c1ncc([N+](=O)[O-])n1CCO
inactive: [12] 102 % of control | [13] 107 % of control | [14] 98 % of control

CCOC(=O)CC(=O)CC(C(=O)OCC)C(=O)OCC
inactive: [2] 98 % of control | [3] 104 % of control | [4] 105 % of control

C1CCN2CSCCCC2C1 (stereo unspecified)
inactive: dose: 50.0 mg/kg/injection, schedule: Q01DX005 (ip), vehicle: saline 100 % of control | dose: 100.0 mg/kg/injection, schedule: Q01DX005 (ip), vehicle: saline 104 % of control | dose: 200.0 mg/kg/injection, schedule: Q01DX005 (ip), vehicle: saline 111 % of control
